Laboratory results published in PMC3604760 (mBio, 2013).

Columns and labels:
MBP-cTlp1 [1] = biological target: MBP-cTlp1 (Azospirillum brasilense, UniProt Q64I05); experiment: equilibrium dialysis, HPLC quantification; type: binding
MBP-cTlp1 [2] = biological target: MBP-cTlp1 (Azospirillum brasilense, UniProt Q64I05, R562A); experiment: equilibrium dialysis, HPLC quantification; type: binding
Sequence of MBP-cTlp1 (Azospirillum brasilense, UniProt Q64I05, R562A) (Q64I05 344-660 R562A): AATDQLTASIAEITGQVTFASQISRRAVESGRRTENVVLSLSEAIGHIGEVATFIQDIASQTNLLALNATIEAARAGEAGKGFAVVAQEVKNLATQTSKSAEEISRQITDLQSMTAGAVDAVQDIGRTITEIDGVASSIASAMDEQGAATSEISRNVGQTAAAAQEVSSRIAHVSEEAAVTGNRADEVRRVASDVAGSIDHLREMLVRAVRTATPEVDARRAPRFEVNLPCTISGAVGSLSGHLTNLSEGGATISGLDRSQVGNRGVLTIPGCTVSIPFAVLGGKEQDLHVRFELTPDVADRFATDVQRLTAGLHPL

Sequence of MBP-cTlp1 (Azospirillum brasilense, UniProt Q64I05) (Q64I05 344-660): as the sequence (Q64I05 344-660 R562A) above, with A219R counted along it

Compound: Nc1nc2c(ncn2[C@@H]2O[C@@H]3CO[P@](=O)(O)O[C@H]4[C@@H](O)[C@H](n5cnc6c(=O)[nH]c(N)nc65)O[C@@H]4CO[P@](=O)(O)O[C@H]3[C@H]2O)c(=O)[nH]1 [c-di-GMP]
- Kd (MBP-cTlp1 [1]): 6.9 ± 1.2 µM
- Kd (MBP-cTlp1 [2]): 21.8 ± 7.1 µM
